From the NIST ThermoML archive (doi:10.1016/j.jct.2016.05.001)
± gives the expanded uncertainty stated by the source.

Experiment: molar heat capacity at constant pressure
Conditions: 101.33 kPa, Crystal, Small (less than 1 g) adiabatic calorimetry

Nc1nc2ncc(CNc3ccc(C(=O)N[C@@H](CCC(=O)O)C(=O)O)cc3)nc2c(=O)[nH]1.O.O [folic acid dihydrate]
Conditions | molar heat capacity at constant pressure [J/K/mol]
4 K | 0.102 ± 0.017
5 K | 0.2491 ± 0.021
6 K | 0.5453 ± 0.031
6.19 K | 0.593 ± 0.033
6.38 K | 0.655 ± 0.036
6.61 K | 0.721 ± 0.038
6.75 K | 0.802 ± 0.041
6.92 K | 0.887 ± 0.045
7 K | 0.912 ± 0.045
7.08 K | 0.945 ± 0.047
7.25 K | 1.04 ± 0.051
7.41 K | 1.13 ± 0.055
7.57 K | 1.252 ± 0.06
7.74 K | 1.385 ± 0.065
7.91 K | 1.525 ± 0.071
8 K | 1.566 ± 0.072
8.09 K | 1.638 ± 0.076
8.26 K | 1.768 ± 0.081
8.44 K | 1.945 ± 0.088
8.62 K | 2.088 ± 0.094
8.81 K | 2.306 ± 0.1
8.99 K | 2.516 ± 0.11
9 K | 2.515 ± 0.11
9.18 K | 2.748 ± 0.12
9.37 K | 2.964 ± 0.13
9.57 K | 3.161 ± 0.14
9.76 K | 3.423 ± 0.15
9.96 K | 3.738 ± 0.16
10 K | 3.778 ± 0.16
10.25 K | 4.166 ± 0.18
10.62 K | 4.708 ± 0.2
10.99 K | 5.254 ± 0.22
11.38 K | 5.862 ± 0.25
11.76 K | 6.483 ± 0.27
12.15 K | 7.179 ± 0.3
12.54 K | 7.815 ± 0.33
12.94 K | 8.333 ± 0.35
13.34 K | 8.928 ± 0.37
13.74 K | 9.587 ± 0.4
14.14 K | 10.14 ± 0.42
14.55 K | 10.74 ± 0.45
14.95 K | 11.46 ± 0.48
15 K | 11.59 ± 0.48
15.36 K | 12.2 ± 0.51
15.77 K | 12.88 ± 0.54
16.17 K | 13.8 ± 0.57
16.58 K | 14.68 ± 0.61
16.99 K | 15.55 ± 0.64
17.41 K | 16.41 ± 0.68
17.82 K | 17.5 ± 0.72
18.23 K | 18.49 ± 0.76
18.65 K | 19.48 ± 0.8
19.07 K | 20.54 ± 0.85
19.48 K | 21.69 ± 0.89
19.9 K | 23.01 ± 0.95
20 K | 23.04 ± 0.95
20.65 K | 24.46 ± 0.33
21.68 K | 27.43 ± 0.37
22.72 K | 30.51 ± 0.4
23.77 K | 33.53 ± 0.43
24.84 K | 36.78 ± 0.46
25 K | 37.08 ± 0.47
25.91 K | 40.14 ± 0.5
26.99 K | 43.46 ± 0.53
28.09 K | 47.02 ± 0.56
29.19 K | 50.59 ± 0.6
30 K | 53.06 ± 0.59
30.31 K | 54.03 ± 0.6
31.67 K | 58.43 ± 0.65
32.99 K | 62.72 ± 0.7
34.13 K | 66.37 ± 0.73
35 K | 68.97 ± 0.76
35.27 K | 70.06 ± 0.77
36.42 K | 73.12 ± 0.8
37.58 K | 77.03 ± 0.85
38.73 K | 80.18 ± 0.88
39.9 K | 83.86 ± 0.92
40 K | 84.24 ± 0.92
41.07 K | 87.28 ± 0.52
42.25 K | 90.77 ± 0.54
43.42 K | 94.06 ± 0.55
44.6 K | 97.24 ± 0.57
45 K | 98.58 ± 0.58
45.79 K | 100.6 ± 0.6
46.98 K | 104.2 ± 0.6
48.17 K | 107.5 ± 0.6
49.36 K | 110.7 ± 0.6
50 K | 112.2 ± 0.7
50.59 K | 113.9 ± 0.7
51.85 K | 117.3 ± 0.7
53.22 K | 120.9 ± 0.7
54.67 K | 124.8 ± 0.7
55.88 K | 127.9 ± 0.7
57.09 K | 131 ± 0.8
58.3 K | 134.2 ± 0.8
59.51 K | 137.3 ± 0.8
60 K | 138.8 ± 0.8
60.73 K | 140.4 ± 0.8
61.94 K | 143.5 ± 0.8
63.16 K | 146.9 ± 0.8
64.38 K | 150.7 ± 0.9
65.6 K | 153.5 ± 0.9
66.82 K | 156.6 ± 0.9
68.05 K | 160.1 ± 0.9
69.27 K | 162.8 ± 0.9
70 K | 164.4 ± 0.9
70.5 K | 165.1 ± 0.9
71.99 K | 169.2 ± 1
74 K | 173.6 ± 1
76.06 K | 178.7 ± 1
78.43 K | 183 ± 1
80 K | 186.3 ± 1
80.89 K | 187.7 ± 1.1
82.9 K | 192.1 ± 1.1
84.91 K | 195.6 ± 1.1
86.92 K | 199 ± 1.1
88.92 K | 202.8 ± 1.1
90 K | 204.7 ± 1.1
90.93 K | 206.4 ± 1.1
92.93 K | 210.3 ± 1.1
94.93 K | 214 ± 1.1
96.93 K | 217.8 ± 1.2
98.92 K | 222.6 ± 1.2
100 K | 224.7 ± 1.2
100.92 K | 227 ± 1.2
103.4 K | 232.2 ± 1.2
106.39 K | 237.8 ± 1.3
109.39 K | 242.7 ± 1.3
110 K | 244.1 ± 1.3
112.4 K | 248.4 ± 1.3
115.42 K | 253.8 ± 1.3
118.43 K | 259.3 ± 1.4
120 K | 262 ± 1.4
121.45 K | 264.5 ± 1.4
124.48 K | 269.8 ± 1.4
127.5 K | 275.4 ± 1.4
130 K | 280.1 ± 1.5
130.53 K | 281.3 ± 1.5
133.57 K | 286.9 ± 1.5
136.6 K | 292.2 ± 1.5
139.64 K | 297.9 ± 1.5
140 K | 298.3 ± 1.5
142.68 K | 303.3 ± 1.6
145.73 K | 308.5 ± 1.6
148.77 K | 314.4 ± 1.6
150 K | 316.4 ± 1.6
151.82 K | 319.5 ± 1.7
154.87 K | 325 ± 1.7
157.92 K | 330.4 ± 1.7
160 K | 334.1 ± 1.7
160.98 K | 335.8 ± 1.7
164.06 K | 341.4 ± 1.8
167.12 K | 346.3 ± 1.8
170 K | 351.6 ± 1.8
170.18 K | 351.6 ± 1.8
173.24 K | 357.2 ± 1.8
176.3 K | 362.7 ± 1.9
179.37 K | 368.2 ± 1.9
180 K | 369 ± 1.9
182.43 K | 373.5 ± 1.9
185.5 K | 378.4 ± 1.9
188.56 K | 383.4 ± 2
190 K | 386.3 ± 2
191.63 K | 389.3 ± 2
194.69 K | 394.9 ± 2
197.76 K | 400.1 ± 2
200 K | 403.7 ± 2.1
200.82 K | 404.6 ± 2.1
203.89 K | 410.4 ± 2.1
207.45 K | 417 ± 2.1
210 K | 421.1 ± 2.1
211.53 K | 423.5 ± 2.2
215.66 K | 431.6 ± 2.2
219.74 K | 437.6 ± 2.2
220 K | 438.6 ± 2.2
223.82 K | 445.1 ± 2.3
227.89 K | 452.3 ± 2.3
230 K | 456.1 ± 2.3
231.96 K | 459.5 ± 2.3
236.04 K | 466.9 ± 2.4
240 K | 473.7 ± 2.4
240.12 K | 474.5 ± 2.4
244.2 K | 481.2 ± 2.4
248.27 K | 487.4 ± 2.5
250 K | 491.2 ± 2.5
252.34 K | 495.1 ± 2.5
256.41 K | 502.6 ± 2.5
260 K | 508.6 ± 2.6
260.47 K | 509.7 ± 2.6
264.53 K | 516.2 ± 2.6
268.59 K | 523.3 ± 2.6
270 K | 525.9 ± 2.7
272.64 K | 530.3 ± 2.7
273.15 K | 531.3 ± 2.7
276.68 K | 537.3 ± 2.7
280 K | 543.1 ± 2.7
280.75 K | 545.1 ± 2.8
284.78 K | 550.6 ± 2.8
288.79 K | 558.6 ± 2.8
290 K | 560.3 ± 2.8
292.8 K | 565.2 ± 2.9
296.8 K | 571.5 ± 2.9
298.15 K | 574.4 ± 2.9
300 K | 577.6 ± 2.9
300.78 K | 578.9 ± 2.9
306.79 K | 590 ± 3
310 K | 595.2 ± 3
312.24 K | 599.4 ± 3
320 K | 613.1 ± 3.1
320.03 K | 612.7 ± 3.1
326.53 K | 625.5 ± 3.1
330 K | 631.7 ± 3.2
332.98 K | 637.3 ± 3.2
333 K | 637.5 ± 3.2
